Laboratory results reported in US7563791B2, “Pyrrolotriazine derivatives useful for treating hyper-proliferative disorders and diseases associated with angiogenesis” (Bayer Pharmaceuticals Corporation, priority 2004, dated 2009).

Legend:
Type in all cases: cell-based
MDA-MB-231 cells = experiment: Tumor cell proliferation (Alamar Blue), MDA-MB-231; settings: Homo sapiens, MDA-MB-231, 72 h
Method in brief: (§1)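 Cells seeded at 3.0×10^3/well in RPMI with 10% FBS for 16 h, then treated with compound (added medium held 40 μM to 18 nM compound, 0.4% DMSO) for 72 h at 37 °C, 5% CO2. Viability by Alamar Blue, 3 h, fluorescence 544/590 nm. IC50 by linear regression of log concentration versus percent inhibition.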

HCT116 cells = experiment: Tumor cell proliferation (Alamar Blue), HCT116; settings: Homo sapiens, HCT-116, 72 h
Method in brief: as §1

[1] = system: histone 3 phosphorylation in colon carcinoma (HCT116); experiment: p-Histone3 assay: inhibition of histone 3 phosphorylation in HCT116; settings: Homo sapiens, HCT-116, 24 h, HCT116, 24 hours compound treatment
Protocol: Compounds were assayed for the inhibition of histone 3 phosphorylation in colon carcinoma (HCT116). Briefly, 20,000 cells/well were seeded in a 96-well black-walled, poly-d-lysine plates in RPMI+10% FBS and incubated at 37° C. in 5% CO2 overnight. The following day, the cells were treated with compounds for 24 hours at 37° C. Following compound treatment; plates were centrifuged at 1000 rpm for 2 minutes and washed twice with 100 μl of cold sterile TBS. Cells were then fixed with cold 3.7% formaldehyde in TBS (4° C. for 1 hour) and then permeabolized with 0.1% Triton-X-100 in TBS (room temperature for 30 minutes). Plates were then washed with of 0.25% BSA-TBS and blocked with BSA solution for 1 hour at room temperature while shaking. The supernatant was removed and replaced with diluted primary antibody (anti-phospho-histone 3, serine 10, Cell Signaling) at 1:250 in 0.25% BSA-TBS and incubated overnight at 4° C. The plates were washed and treated with diluted secondary antibody (anti-rabbit Eu-labeled) at 1:10000 in 0.25% BSA-TBS (room temperature for 1 hour). The antibody solution was removed from each well and washed eight times. The wash buffer was replaced with 50 μl pre-warmed enhancement solution and mixed on the orbital shaker for 10 minutes. Fluorescence was detected with a Victor V Fluorescence Detector. The data are expressed as percent inhibition: % inhibition=100−((Signal with inhibitor-background)/(Signal without inhibitor-background))×100.

[2] = system: VEGF stimulated Phospho-ERK in HUVEC; experiment: Growth factor stimulated p-ERK assay in HUVECs (VEGF stimulation, ERK1/2 Bioplex); settings: Homo sapiens, @ 100 nM, compound 2 hrs, then 50 ng/ml VEGF 10 min
Method in brief: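 HUVECs in serum-free RPMI 1640/0.1% BSA pretreated with compound 2 hrs, then stimulated 10 min with 50 ng/ml VEGF (or bFGF). Lysate phospho-ERK1/2 quantified by bead-based Bio-Plex immunoassay on Luminex.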

IC50 (MDA-MB-231 cells) [µM]	IC50 (MDA-MB-231 cells; bounds given in μM) [µM]	IC50 (HCT116 cells) [µM]	IC50 (HCT116 cells; bounds given in μM) [µM]	IC50 [1] [µM]	IC50 ([1]; bound given in μM) [µM]	Compound	inhibition at 0.1 µM [2] [%]
> 0.5	< 1.5	> 0.5	< 1.5	> 0.5	< 1	CNC(=O)c1cn2ncnc(N)c2c1-c1ccc(NC(=O)Nc2cc(C(F)(F)F)ccc2F)cc1 [Example 59, 4-amino-5-{4-[({[2-fluoro-5-(trifluoromethyl)phenyl]amino}carbonyl)amino]phenyl}-N-methylpyrrolo[2,1-f][1,2,4]triazine-6-carboxamide]	> 50
–	–	–	–	< 0.5	–	Nc1ncnn2cc(C(=O)NCC(F)(F)F)c(-c3ccc(NC(=O)Nc4cccc(C(F)(F)F)n4)cc3)c12 [Example 139, 4-amino-N-(2,2,2-trifluoroethyl)-5-{4-[({[6-(trifluoromethyl)pyridin-2-yl]amino}carbonyl)amino]phenyl}pyrrolo[2,1-f][1,2,4]triazine-6-carboxamide]	–
